Laboratory results taken from patent publication US8415469B2, “Compounds and methods for kinase modulation, and indications therefor” (Plexxikon Inc., priority 2005, dated 2013).

How the values were obtained:
Format in all cases: biochemical
[1] = molecular target: T1, Kdr (Homo sapiens, UniProt P35968); experiment: Z'-Lyte FRET kinase assay (Invitrogen), Kdr; conditions: read-out: IC50, activity toward kinase Kdr
T1 construct: purchased Invitrogen (assay run by Invitrogen)

[2] = molecular target: T2, Itk (Homo sapiens, UniProt Q08881); experiment: AlphaScreen kinase assay, Itk; conditions: read-out: IC50, activity toward kinase Itk
T2 sequence (Q08881 1-620): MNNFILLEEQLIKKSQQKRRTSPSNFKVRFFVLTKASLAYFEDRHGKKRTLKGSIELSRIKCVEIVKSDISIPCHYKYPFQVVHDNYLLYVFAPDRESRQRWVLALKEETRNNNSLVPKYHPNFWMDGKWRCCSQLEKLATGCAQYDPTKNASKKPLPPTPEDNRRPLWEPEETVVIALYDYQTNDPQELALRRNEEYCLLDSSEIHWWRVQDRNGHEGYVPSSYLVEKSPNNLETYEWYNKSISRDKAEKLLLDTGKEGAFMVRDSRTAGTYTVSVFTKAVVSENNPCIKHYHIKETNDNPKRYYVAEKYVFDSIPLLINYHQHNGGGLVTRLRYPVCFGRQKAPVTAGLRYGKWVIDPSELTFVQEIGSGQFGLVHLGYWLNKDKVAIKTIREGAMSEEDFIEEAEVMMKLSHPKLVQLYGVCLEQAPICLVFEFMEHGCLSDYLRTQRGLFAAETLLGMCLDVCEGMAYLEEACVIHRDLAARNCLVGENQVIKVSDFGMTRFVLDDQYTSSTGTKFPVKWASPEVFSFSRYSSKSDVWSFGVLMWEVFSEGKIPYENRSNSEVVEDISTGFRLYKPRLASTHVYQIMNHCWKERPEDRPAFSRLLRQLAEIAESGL
Description: AlphaScreen assay was used to screen additional kinases. The assay is similarly dependent on the phosphorylation of a peptide substrate. In this assay, an antibody that recognizes phosphorylated substrate is bound to an acceptor bead. The peptide substrate is attached to biotin, which binds to a donor head that contains streptavidin. Thus phosphorylated substrate is bound by antibody and streptavidin, bringing the donor and acceptor heads into close proximity when kinase is not inhibited. The donor produces singlet oxygen which results in emission from the acceptor when they are in close proximity. Conversely, when kinase is inhibited, the donor and acceptor beads are not associated and the emission from the acceptor is reduced.
AlphaScreen assays were done using compounds dissolved in DMSO to a concentration of 20 mM. The compounds were diluted accordingly to the desired final concentrations in each sample well, using 1:3 serial dilution for a total of 8 concentration points.

[3] = molecular target: T3, Stk6 (Homo sapiens, UniProt O14965); experiment: Z'-Lyte FRET kinase assay (Invitrogen), Stk6; conditions: read-out: IC50, activity toward kinase Stk6
T3 construct: purchased Invitrogen (Carlsbad, Calif.), screening service
T3 sequence (O14965 1-403): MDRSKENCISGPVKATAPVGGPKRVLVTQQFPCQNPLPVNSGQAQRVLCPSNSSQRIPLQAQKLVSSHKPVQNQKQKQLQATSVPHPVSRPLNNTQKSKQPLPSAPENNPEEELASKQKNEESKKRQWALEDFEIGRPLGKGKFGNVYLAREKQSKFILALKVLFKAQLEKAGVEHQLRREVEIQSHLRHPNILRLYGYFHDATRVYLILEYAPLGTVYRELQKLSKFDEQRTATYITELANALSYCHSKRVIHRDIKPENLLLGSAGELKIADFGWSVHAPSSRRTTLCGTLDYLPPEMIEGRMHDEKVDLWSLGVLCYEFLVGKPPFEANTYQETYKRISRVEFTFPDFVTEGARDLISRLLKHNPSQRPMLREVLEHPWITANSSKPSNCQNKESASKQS
Description: For example, direct radiometric, indirect FRET or AlphaScreen assays may be used to assess the level of phosphorylation of a substrate in the presence of test compounds in order to determine the inhibitory affect of the compound on the kinase. […] For these assays, compounds of the invention were screened by Invitrogen using Z′-Lyte™ kinase assay.
Briefly, the Invitrogen kinase assay involves use of a specific peptide substrate optimized for each kinase, containing a fluorophore at each end that make up the FRET pair. The peptide sensitivity to proteolytic cleavage depends on phosphorylation of the peptide. Non-phosphorylated peptide is cleaved by a protease while peptide phosphorylated by the kinase is not cleaved. Cleavage of the peptide disrupts the FRET between the donor (coumarin) and acceptor (fluorescein) fluorophores, resulting in an increase in the ratio of donor emission to acceptor emission. The emission ratio of coumarin to fluorescein is used to assess the reaction progress. […] Thus, the assay involves a kinase reaction in the presence of varying concentrations of a given compound, a development reaction with site specific protease, and detection of the fluorescent emission ratio of coumarin and fluorscein. […] Reaction conditions for each kinase are determined to provide optimal reaction times, incubation temperature, kinase and ATP concentrations. Test samples are made up in 1× kinase buffer (50 mM HEPES pH 7.5, 50 mM MgCl2, 5 mM EGTA, 0.05% BRIJ-35) and compound at desired concentration prepared in DMSO such that the final DMSO is 1%. […] All kinase except for MAP2K1 were at 10 μM ATP in the kinase reaction, while MAP2K1 was at 100 μM. Samples are mixed and the kinase reaction is incubated 1 hour at room temperature, after which 5 μl of development solution is added and mixed. After incubation for another 1 hour at room temperature, 5 μl of stop reagent is added to each sample and mixed. The fluorescence signals are measured to determine the emission ratio.

[4] = molecular target: T4, IKK beta (Homo sapiens, UniProt O14920); experiment: AlphaScreen kinase assay, IKK beta; conditions: read-out: IC50, activity toward kinase IKK beta
T4 sequence (O14920 1-756): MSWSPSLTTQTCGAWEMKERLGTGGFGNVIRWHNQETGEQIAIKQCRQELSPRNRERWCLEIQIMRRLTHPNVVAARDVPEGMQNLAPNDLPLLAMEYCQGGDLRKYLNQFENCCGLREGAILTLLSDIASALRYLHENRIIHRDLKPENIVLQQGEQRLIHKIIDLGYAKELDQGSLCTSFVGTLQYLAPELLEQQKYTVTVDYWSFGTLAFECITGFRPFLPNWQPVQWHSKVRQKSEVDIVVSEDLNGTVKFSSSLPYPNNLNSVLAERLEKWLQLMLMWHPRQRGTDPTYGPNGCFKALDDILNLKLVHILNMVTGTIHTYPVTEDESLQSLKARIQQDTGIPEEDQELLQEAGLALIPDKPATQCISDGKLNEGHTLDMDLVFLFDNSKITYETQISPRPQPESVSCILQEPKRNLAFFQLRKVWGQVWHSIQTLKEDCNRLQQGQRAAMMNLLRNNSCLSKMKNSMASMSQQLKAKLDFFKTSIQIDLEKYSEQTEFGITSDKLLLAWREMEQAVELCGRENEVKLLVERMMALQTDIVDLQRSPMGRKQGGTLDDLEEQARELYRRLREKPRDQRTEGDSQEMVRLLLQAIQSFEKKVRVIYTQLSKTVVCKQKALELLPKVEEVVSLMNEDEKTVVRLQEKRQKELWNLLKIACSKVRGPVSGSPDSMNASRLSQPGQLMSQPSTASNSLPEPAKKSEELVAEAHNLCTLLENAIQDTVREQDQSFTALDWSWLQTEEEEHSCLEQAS

[5] = molecular target: T5, PKC theta (Homo sapiens, UniProt Q04759); experiment: Z'-Lyte FRET kinase assay (Invitrogen), PKC theta; conditions: read-out: IC50, activity toward kinase PKC theta
T5 construct: purchased Invitrogen (Carlsbad, Calif.), screening service
Description: The effect of potential modulators of kinase activity can be measured in a variety of different assays known in the art. For example, direct radiometric, indirect FRET or AlphaScreen assays may be used to assess the level of phosphorylation of a substrate in the presence of test compounds in order to determine the inhibitory affect of the compound on the kinase. Invitrogen (Carlsbad, Calif.) uses a FRET based assay for Btk, EGFR, EphB2, Flt3, lrak4, Kdr, MAP2K1, MAPKAPK2, PDGFRB, PKC theta, Stk6 and Yes. For these assays, compounds of the invention were screened by Invitrogen using Z′-Lyte™ kinase assay.
Briefly, the Invitrogen kinase assay involves use of a specific peptide substrate optimized for each kinase, containing a fluorophore at each end that make up the FRET pair. The peptide sensitivity to proteolytic cleavage depends on phosphorylation of the peptide. Non-phosphorylated peptide is cleaved by a protease while peptide phosphorylated by the kinase is not cleaved. Cleavage of the peptide disrupts the FRET between the donor (coumarin) and acceptor (fluorescein) fluorophores, resulting in an increase in the ratio of donor emission to acceptor emission. The emission ratio of coumarin to fluorescein is used to assess the reaction progress. The extent of phosphorylation is determined from the emission ratio, which is low when the kinase is active (phosphorylated peptide is not cleaved, FRET pair connected) or higher for inhibited kinase (non-phosphorylated peptide is cleaved, FRET pair separated). Thus, the assay involves a kinase reaction in the presence of varying concentrations of a given compound, a development reaction with site specific protease, and detection of the fluorescent emission ratio of coumarin and fluorscein. […] Reaction conditions for each kinase are determined to provide optimal reaction times, incubation temperature, kinase and ATP concentrations. Test samples are made up in 1× kinase buffer (50 mM HEPES pH 7.5, 50 mM MgCl2, 5 mM EGTA, 0.05% BRIJ-35) and compound at desired concentration prepared in DMSO such that the final DMSO is 1%. […] Typically, assay plates are prepared to 10 μl final volume per sample, adding 2.5 μl of compound at 4× the desired concentration in 4% DMSO (serial dilution of compound provides concentration curve), 5 μl of the desired kinase mixed with Z′-LYTE™ peptide substrate (2× in 2× kinase buffer, final peptide at 2 μM), and 2.5 μl of 4×ATP solution. All kinase except for MAP2K1 were at 10 μM ATP in the kinase reaction, while MAP2K1 was at 100 μM. Samples are mixed and the kinase reaction is incubated 1 hour at room temperature, after which 5 μl of development solution is added and mixed. After incubation for another 1 hour at room temperature, 5 μl of stop reagent is added to each sample and mixed. The fluorescence signals are measured to determine the emission ratio.

[6] = molecular target: Akt3 (Homo sapiens, UniProt Q9Y243); experiment: AlphaScreen kinase assay, Akt3; conditions: read-out: IC50, activity toward kinase Akt3
How it was run: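 Peptide phosphorylation detected by proximity: streptavidin donor beads bind biotinylated substrate, acceptor beads carry antibody to phosphorylated substrate, singlet oxygen transfer gives emission. Dose-response over 8 points (1:3 steps); stocks 20 mM in DMSO.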

[7] = molecular target: T6, Pyk2 (Homo sapiens, UniProt Q14289); experiment: AlphaScreen kinase assay, Pyk2; conditions: read-out: IC50, activity toward kinase Pyk2
T6 construct: purchased Upstate Biotechnology

[8] = molecular target: T7, Fms (Homo sapiens, UniProt P07333); experiment: AlphaScreen kinase assay, Fms; conditions: read-out: IC50, activity toward kinase Fms
T7 construct: purchased Upstate Biotechnology

[9] = molecular target: T8, c-Raf-1 (Homo sapiens, UniProt P04049); experiment: AlphaScreen kinase assay, c-Raf-1; conditions: read-out: IC50, activity toward kinase c-Raf-1
T8 construct: purchased Upstate Biotechnology

[10] = molecular target: T9, B-Raf (Homo sapiens, UniProt P15056); experiment: AlphaScreen kinase assay, B-Raf; conditions: read-out: IC50, activity toward kinase B-Raf
T9 construct: purchased Upstate Biotechnology

[11] = molecular target: T10, Kit (Homo sapiens, UniProt P10721); experiment: AlphaScreen kinase assay, Kit; conditions: read-out: IC50, activity toward kinase Kit
T10 construct: P1332.N6 BI PTP KIT M552-K948-X COD; His6 (N); made in house; host or cells: E. coli (PTP1B co-expressed)

[12] = molecular target: T11, Jnk3 (Homo sapiens, UniProt P53779); experiment: AlphaScreen kinase assay, Jnk3; conditions: read-out: IC50, activity toward kinase Jnk3
T11 construct: purchased Upstate Biotechnology

[13] = molecular target: T12, B-Raf V600E (Homo sapiens, UniProt P15056, V600E); experiment: AlphaScreen kinase assay, B-Raf V600E; conditions: read-out: IC50, activity toward kinase B-Raf V600E
T12 construct: P4254. pFastBacBD-CDC37 BRAF D437-K722-X, V600E; His6 with pFastBac HT leader (TEV site) (N); made in house; host or cells: Sf9 (baculovirus; chaperone CDC37 co-expressed)

[14] = molecular target: T13, FGFR1 (Homo sapiens, UniProt P11362, C488A/C584S); experiment: AlphaScreen kinase assay, FGFR1; conditions: read-out: IC50, activity toward kinase FGFR
T13 construct: P1351.pET N6 BI-PTP FGFR A458-E765-X C488A, C584S; made in house; host or cells: E. coli (PTP1B co-expressed)

[15] = molecular target: T14, Jnk1 (Homo sapiens, UniProt P45983); experiment: AlphaScreen kinase assay, Jnk1; conditions: read-out: IC50, activity toward kinase Jnk1
T14 construct: purchased Upstate Biotechnology

[16] = molecular target: T15, Src (Homo sapiens, UniProt P12931); experiment: AlphaScreen kinase assay, Src; conditions: read-out: IC50, activity toward kinase Src
T15 construct: P1144. pET-N6 BI-PTP SRC V86-L536-X; made in house

[17] = molecular target: T16, Fak (Homo sapiens, UniProt Q05397); experiment: AlphaScreen kinase assay, Fak; conditions: read-out: IC50, activity toward kinase Fak
T16 construct: P1358.pFastBacHtb FAK S411-Q686-X; His6 with pFastBacHTb leader (TEV site) (N); made in house; host or cells: Sf9 (baculovirus)

Measured: IC50

T12 sequence (P15056 with tags, fused parts or gaps V600E): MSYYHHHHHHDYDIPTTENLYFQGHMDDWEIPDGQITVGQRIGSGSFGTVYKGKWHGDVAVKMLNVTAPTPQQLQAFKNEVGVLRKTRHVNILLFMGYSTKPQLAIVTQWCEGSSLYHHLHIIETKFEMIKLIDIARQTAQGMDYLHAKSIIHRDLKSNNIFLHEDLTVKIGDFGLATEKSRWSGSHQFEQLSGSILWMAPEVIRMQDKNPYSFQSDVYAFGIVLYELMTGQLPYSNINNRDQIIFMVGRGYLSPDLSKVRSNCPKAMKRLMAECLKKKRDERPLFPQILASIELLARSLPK
Chain of Akt3 (Q9Y243 whole entry): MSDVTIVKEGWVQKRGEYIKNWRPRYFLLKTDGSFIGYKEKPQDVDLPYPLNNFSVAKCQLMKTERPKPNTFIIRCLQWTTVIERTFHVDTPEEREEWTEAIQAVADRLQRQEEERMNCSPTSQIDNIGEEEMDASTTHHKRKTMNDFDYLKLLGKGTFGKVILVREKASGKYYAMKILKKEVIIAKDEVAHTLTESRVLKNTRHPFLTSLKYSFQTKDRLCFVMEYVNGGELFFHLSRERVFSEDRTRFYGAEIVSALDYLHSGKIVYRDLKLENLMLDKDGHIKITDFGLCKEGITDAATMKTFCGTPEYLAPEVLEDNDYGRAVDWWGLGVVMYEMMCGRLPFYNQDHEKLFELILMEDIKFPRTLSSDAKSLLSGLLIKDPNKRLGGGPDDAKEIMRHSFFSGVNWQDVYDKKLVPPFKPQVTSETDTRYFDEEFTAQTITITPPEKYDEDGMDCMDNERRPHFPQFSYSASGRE
T9 sequence (P15056 whole entry): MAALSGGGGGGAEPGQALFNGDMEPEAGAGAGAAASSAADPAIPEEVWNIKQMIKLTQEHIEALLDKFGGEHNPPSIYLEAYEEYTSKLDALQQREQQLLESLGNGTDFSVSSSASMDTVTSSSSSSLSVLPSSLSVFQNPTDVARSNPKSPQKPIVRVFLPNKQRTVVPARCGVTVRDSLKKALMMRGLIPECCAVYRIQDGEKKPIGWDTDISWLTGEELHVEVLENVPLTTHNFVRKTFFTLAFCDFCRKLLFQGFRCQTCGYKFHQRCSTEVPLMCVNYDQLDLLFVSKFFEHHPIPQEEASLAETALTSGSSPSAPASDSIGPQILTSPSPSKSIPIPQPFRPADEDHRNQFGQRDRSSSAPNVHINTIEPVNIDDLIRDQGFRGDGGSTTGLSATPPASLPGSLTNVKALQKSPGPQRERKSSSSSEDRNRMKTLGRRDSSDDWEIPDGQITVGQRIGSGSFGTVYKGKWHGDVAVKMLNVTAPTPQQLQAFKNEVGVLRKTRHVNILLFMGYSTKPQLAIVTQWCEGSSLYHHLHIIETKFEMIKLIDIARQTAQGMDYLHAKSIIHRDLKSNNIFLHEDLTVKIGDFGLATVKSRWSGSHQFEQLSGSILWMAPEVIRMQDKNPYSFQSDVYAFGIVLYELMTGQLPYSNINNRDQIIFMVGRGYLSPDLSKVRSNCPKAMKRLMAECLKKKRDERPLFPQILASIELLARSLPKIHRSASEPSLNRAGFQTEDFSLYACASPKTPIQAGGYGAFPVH
T1 sequence (P35968 20-1356): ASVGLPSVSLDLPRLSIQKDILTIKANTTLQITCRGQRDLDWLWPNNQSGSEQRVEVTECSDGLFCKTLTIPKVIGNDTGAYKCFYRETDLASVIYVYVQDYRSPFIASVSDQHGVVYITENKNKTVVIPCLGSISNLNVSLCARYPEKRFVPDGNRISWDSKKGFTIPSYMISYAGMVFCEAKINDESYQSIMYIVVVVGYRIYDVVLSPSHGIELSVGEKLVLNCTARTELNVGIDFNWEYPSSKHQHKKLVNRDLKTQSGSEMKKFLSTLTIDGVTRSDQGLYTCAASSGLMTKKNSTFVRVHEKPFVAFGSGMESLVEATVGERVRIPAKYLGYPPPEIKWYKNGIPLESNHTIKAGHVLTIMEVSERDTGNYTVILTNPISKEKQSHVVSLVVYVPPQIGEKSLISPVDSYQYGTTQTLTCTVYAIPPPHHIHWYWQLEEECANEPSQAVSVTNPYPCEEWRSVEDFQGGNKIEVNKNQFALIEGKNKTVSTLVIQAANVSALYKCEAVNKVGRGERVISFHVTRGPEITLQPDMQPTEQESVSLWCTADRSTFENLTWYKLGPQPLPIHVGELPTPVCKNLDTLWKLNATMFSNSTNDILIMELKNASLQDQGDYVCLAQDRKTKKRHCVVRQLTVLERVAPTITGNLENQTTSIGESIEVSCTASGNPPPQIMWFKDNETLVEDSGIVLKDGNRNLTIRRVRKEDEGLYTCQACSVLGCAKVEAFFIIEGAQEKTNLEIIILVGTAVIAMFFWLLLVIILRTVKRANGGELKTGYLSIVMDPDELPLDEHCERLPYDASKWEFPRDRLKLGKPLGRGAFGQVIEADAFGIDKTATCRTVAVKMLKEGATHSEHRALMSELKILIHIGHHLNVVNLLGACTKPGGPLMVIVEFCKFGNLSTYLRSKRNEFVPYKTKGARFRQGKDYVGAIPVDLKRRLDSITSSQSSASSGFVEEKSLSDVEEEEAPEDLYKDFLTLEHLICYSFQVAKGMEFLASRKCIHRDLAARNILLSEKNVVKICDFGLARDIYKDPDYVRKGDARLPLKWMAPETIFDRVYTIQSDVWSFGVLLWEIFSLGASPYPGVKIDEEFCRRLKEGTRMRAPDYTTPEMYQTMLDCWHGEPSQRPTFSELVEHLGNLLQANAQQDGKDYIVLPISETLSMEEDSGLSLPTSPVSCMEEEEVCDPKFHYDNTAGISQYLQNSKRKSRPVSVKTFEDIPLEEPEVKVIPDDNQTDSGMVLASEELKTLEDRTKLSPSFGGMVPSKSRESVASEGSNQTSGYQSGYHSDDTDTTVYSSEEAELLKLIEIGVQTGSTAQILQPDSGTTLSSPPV
T10 sequence (P10721 with tags, fused parts or gaps): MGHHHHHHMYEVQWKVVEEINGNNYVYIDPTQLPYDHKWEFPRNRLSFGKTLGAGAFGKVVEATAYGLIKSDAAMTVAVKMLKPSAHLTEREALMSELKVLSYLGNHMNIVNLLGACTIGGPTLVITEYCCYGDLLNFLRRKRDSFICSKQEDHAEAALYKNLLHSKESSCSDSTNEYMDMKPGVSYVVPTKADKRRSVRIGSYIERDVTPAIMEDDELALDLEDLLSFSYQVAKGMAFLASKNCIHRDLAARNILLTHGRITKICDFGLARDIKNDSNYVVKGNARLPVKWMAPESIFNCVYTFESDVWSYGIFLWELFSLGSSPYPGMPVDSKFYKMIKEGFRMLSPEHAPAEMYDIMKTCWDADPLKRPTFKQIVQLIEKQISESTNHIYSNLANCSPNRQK
T11 sequence (P53779 whole entry): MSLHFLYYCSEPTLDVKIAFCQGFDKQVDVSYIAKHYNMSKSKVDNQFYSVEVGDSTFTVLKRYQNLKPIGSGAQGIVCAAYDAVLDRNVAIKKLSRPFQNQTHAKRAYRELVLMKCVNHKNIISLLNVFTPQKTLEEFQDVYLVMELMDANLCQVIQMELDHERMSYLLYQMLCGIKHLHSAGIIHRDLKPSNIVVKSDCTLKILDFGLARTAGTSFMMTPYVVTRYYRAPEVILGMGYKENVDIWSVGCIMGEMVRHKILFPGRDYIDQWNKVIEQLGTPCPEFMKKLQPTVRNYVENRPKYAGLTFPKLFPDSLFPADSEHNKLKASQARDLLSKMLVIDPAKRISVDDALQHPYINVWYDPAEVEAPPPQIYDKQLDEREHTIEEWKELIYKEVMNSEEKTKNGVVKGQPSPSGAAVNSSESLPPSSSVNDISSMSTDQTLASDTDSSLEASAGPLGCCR
T7 sequence (P07333 20-972): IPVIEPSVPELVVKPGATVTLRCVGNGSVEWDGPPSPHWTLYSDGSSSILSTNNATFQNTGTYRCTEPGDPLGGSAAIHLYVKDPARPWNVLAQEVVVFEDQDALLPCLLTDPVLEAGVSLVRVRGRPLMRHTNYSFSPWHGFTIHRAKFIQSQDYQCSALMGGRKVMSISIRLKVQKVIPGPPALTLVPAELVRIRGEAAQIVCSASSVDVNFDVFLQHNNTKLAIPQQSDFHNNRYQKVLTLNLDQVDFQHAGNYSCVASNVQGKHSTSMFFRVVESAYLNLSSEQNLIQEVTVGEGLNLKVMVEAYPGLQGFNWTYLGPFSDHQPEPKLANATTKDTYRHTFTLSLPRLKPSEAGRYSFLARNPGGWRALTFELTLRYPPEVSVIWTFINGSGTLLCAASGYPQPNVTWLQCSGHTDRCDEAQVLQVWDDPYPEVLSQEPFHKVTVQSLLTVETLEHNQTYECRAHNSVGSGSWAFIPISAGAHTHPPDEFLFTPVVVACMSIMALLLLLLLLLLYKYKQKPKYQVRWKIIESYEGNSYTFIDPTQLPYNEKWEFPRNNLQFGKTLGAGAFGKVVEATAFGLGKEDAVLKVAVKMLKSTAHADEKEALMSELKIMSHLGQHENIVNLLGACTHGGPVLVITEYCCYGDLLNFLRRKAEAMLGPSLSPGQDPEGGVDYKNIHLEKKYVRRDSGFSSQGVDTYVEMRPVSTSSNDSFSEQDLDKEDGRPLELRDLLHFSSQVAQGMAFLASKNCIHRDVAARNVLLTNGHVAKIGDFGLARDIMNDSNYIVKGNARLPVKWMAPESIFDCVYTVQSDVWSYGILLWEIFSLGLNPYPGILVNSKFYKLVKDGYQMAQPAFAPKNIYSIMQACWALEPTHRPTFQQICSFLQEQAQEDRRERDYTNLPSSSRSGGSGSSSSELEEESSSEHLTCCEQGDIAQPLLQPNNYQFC
T13 sequence (P11362 458-765 C488A/C584S): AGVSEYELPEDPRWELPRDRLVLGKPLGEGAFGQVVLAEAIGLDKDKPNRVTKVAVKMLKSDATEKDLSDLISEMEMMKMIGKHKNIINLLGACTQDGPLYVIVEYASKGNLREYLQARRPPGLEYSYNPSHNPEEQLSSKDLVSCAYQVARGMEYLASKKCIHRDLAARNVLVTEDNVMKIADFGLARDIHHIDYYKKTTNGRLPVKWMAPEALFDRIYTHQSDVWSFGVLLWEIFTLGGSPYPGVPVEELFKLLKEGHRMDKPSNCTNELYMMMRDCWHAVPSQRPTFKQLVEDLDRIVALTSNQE

CS(=O)(=O)c1cccc(-c2cnc3[nH]ccc3c2)c1 [Compound P-0173, 5-(3-Methanesulfonyl-phenyl)-1H-pyrrolo[2,3-b]pyridine]
≤ 10 µM: [1] | [2] | [3]

c1cc(-c2ccc(N3CCNCC3)nc2)c2cc[nH]c2n1 [Compound P-0270]
≤ 10 µM: [4] | [5] | [1] | [6]

c1cc(Nc2ccc(N3CCCCC3)cc2)c2cc[nH]c2n1 [Compound P-0883]
≤ 10 µM: [7] | [8] | [9] | [10] | [2] | [6]

c1cc2cc(Nc3ccc(N4CCCCC4)cc3)cnc2[nH]1 [Compound P-1016]
≤ 10 µM: [11] | [12] | [2] | [6] | [13]

Brc1ccc(Nc2cnc3[nH]ccc3c2)cc1 [Compound P-1067]
≤ 10 µM: [2] | [13]

NC(=O)c1cccc(-c2cnc3[nH]cc(Cc4ccccc4O)c3c2)c1 [Compound P-1385]
not listed: [1] | [3] | [4] | [5] | [6] | [7] | [9]
≤ 10 µM: all other assays above
